Experimental data reported in patent publication US20220192955A1, “AZOXYSTROBIN EFFICACY IN SCALP HEALTH” (The Procter & Gamble Company, priority 2020, published 2022).
Marks after values point to notes of the source that are not given here.

What was measured:
IL-1RA: IL-1α = assay: Scalp tape strip inflammatory cytokines IL-1RA:IL-1α; type: in vivo, human
Method: Subjects are enrolled in a double-blind, randomized study for all test groups and have Baseline and Week 3 measurements of scalp health taken for flaking, itch and scalp health endpoints. Subjects take home a test product(s) and are instructed on use of test products throughout the study. Test products are solubilized in a hydroalcoholic leave-on formulation. Azoxystrobin raw material is sourced from AK Scientific Inc. (Union City, Calif.) as >97% pure. Azoxystrobin scalp treatment is prepared from a slurry of azoxystrobin in ethanol that is formulated to 0.1% (w/v) in a base chassis of 50% ethanol, 0.35% Ultrez 21 (rheology modifier), 0.05% neutrol TE and water (q.s.). […] Biomarkers of scalp health, including biomarkers of inflammation, itch, oxidative stress and barrier integrity are assessed by non-invasive tape strip sampling of the scalp surface to determine therapeutic resolution. All biomarkers are analyzed from D-Squame® scalp tape samples that are collected from the scalp of subjects before and after scalp treatment with either azoxystrobin or vehicle (Baseline, and Week 3 respectively). These are extracted and analyzed according to published methods (International Journal of Dermatology 2011, 50, 102-113, incorporated by reference herein). […] Human inflammatory cytokines are analyzed to evaluate skin irritation and inflammatory processes. […]

Histamine = assay: Scalp tape strip histamine (HPLC/MS/MS); type: in vivo, human
Method: Subjects are enrolled in a double-blind, randomized study for all test groups and have Baseline and Week 3 measurements of scalp health taken for flaking, itch and scalp health endpoints. Subjects take home a test product(s) and are instructed on use of test products throughout the study. Test products are solubilized in a hydroalcoholic leave-on formulation. Azoxystrobin raw material is sourced from AK Scientific Inc. (Union City, Calif.) as >97% pure. Azoxystrobin scalp treatment is prepared from a slurry of azoxystrobin in ethanol that is formulated to 0.1% (w/v) in a base chassis of 50% ethanol, 0.35% Ultrez 21 (rheology modifier), 0.05% neutrol TE and water (q.s.). […]
Biomarkers of scalp health, including biomarkers of inflammation, itch, oxidative stress and barrier integrity are assessed by non-invasive tape strip sampling of the scalp surface to determine therapeutic resolution. All biomarkers are analyzed from D-Squame® scalp tape samples that are collected from the scalp of subjects before and after scalp treatment with either azoxystrobin or vehicle (Baseline, and Week 3 respectively). These are extracted and analyzed according to published methods (International Journal of Dermatology 2011, 50, 102-113, incorporated by reference herein). […]
Histamine is analyzed by gradient reversed-phase HPLC/MS/MS to evaluate scalp itch. […]

[1] = 0.1% leave-on daily, Week 3, scalp tape strips

What does the source list for `CO/C=C(/C(=O)OC)c1ccccc1Oc1cc(Oc2ccccc2C#N)ncn1` [Azoxystrobin]?
IL-1RA: IL-1α ratio, % Change from Baseline (IL-1RA: IL-1α; [1]): −58.3* %; reduction of Interleukin-1 (IL-1RA: IL-1α) (IL-1RA: IL-1α; compared to a placebo control): 58%; Histamine Results % Change from Baseline (Histamine; [1]): 23.8%; histamine reduction compared to placebo control or baseline values (in words) (Histamine; 3 weeks of treatment): does not significantly reduce histamine
